How the values were obtained:
human LAT1/4F2hc = human LAT1/4F2hc (Homo sapiens, UniProt Q01650); experiment: Inhibition of LAT1 transport function: L-valine uptake in HRPE cells co-expressing human LAT1 and human 4F2hc; format: cell-based; conditions: for effect on cDNA-induced valine uptake: 1 mM, L-[14C]valine 0.75 μM, 5 min
ATB^0,+ in MCF7 cells = target: T1, ATB^0,+ in MCF7 cells (Homo sapiens, UniProt Q9UN76); experiment: D-serine uptake in MCF7 cells (constitutively expressed ATB^0,+); format: cell-based; conditions: for IC50: D-serine 5 μM, NaCl, read-out: IC50 for inhibition of D-serine uptake
T1 construct: host or cells: MCF7
T1 sequence (Q9UN76 1-642): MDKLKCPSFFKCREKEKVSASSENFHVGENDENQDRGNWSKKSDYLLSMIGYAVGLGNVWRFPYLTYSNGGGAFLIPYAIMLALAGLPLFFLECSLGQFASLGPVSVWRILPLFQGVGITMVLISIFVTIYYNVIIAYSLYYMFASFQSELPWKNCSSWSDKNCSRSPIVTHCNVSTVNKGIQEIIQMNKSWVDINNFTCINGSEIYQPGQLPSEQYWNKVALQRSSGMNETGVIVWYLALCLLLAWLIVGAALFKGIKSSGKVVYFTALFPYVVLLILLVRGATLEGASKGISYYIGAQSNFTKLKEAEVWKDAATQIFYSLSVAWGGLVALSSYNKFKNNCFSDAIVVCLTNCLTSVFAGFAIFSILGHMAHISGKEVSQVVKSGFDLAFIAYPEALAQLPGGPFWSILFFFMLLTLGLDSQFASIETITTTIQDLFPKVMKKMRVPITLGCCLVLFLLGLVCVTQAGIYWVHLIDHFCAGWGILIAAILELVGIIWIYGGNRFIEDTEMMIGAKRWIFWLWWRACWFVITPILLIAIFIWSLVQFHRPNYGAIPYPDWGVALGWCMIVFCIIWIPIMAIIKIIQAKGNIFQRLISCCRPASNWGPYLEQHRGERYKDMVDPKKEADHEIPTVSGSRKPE
Description: Cells were seeded and grown in 24-well culture plates to confluency and used for uptake measurements. Radiolabelled glycine or D-serine was used as the substrate to determine the transport function of ATB^0,+. Uptake measurements were routinely made in an NaCl-containing buffer (25 mM Hepes/Tris buffer, pH 7.4, 140 mM NaCl, 5.4 mM KCl, 1.8 mM CaCl2, 0.8 mM MgSO4 and 5 mM glucose). Ion dependence of the transport process was evaluated by studying the uptake activity in buffers of varying compositions. NaCl in the uptake buffer was replaced iso-osmotically with NMDG (N-methyl-D-glucamine) chloride to prepare an Na^+-free buffer, and with sodium gluconate to prepare a Cl^−-free buffer. Linear uptake rates were determined by employing a 10 min incubation period, based on time course experiments. Na^+-activation kinetics was analysed by studying the uptake rates in the presence of varying concentrations of Na^+ (2.5-140 mM) in the uptake buffer with Cl^− concentration kept constant at 140 mM. This was done by replacing NaCl with appropriate concentrations of NMDG. Cl^−-activation kinetics was analysed by studying the uptake rates in the presence of varying concentrations of Cl^− (2.5-100 mM) in the uptake buffer with Na^+ concentration kept constant at 140 mM. This was done by replacing NaCl with appropriate concentrations of sodium gluconate. Uptake data for Na^+- and Cl^−-activation kinetics were analysed using the Hill equation, and values for K0.5 for Na^+ and Cl^− and for the Hill coefficient (h) were determined by linear and non-linear regression methods. A commercially available software program (Sigma Plot, version 6.0; SPSS) was used for this purpose. Substrate specificity of the uptake process was evaluated by monitoring the effects of unlabelled amino acids (5 mM) on the uptake of radiolabelled glycine or D-serine (5 μM: radiolabelled substrate, 0.05 μM; unlabelled substrate, 4.95 μM).
The kinetic nature of inhibition of D-serine uptake by α-methyl-DL-tryptophan was investigated in MCF7 cells by monitoring the uptake at increasing concentrations of D-serine (range, 50-2000 μM) in the absence and presence of 100 μM α-methyl-DL-tryptophan. The kinetic parameters were calculated by linear regression (Eadie-Hofstee plots) and the values were confirmed by non-linear regression.
We employed a similar experimental strategy to detect specifically the transport function of ATB^0,+ in the remaining seven cell lines. […] We also investigated the effect of α-methyl-DL-tryptophan on D-serine uptake in MCF7 cells.

[1] = α-methyl-DL-tryptophan 100 μM, MCF7 cells

Sequence of human LAT1/4F2hc (Q01650 whole entry): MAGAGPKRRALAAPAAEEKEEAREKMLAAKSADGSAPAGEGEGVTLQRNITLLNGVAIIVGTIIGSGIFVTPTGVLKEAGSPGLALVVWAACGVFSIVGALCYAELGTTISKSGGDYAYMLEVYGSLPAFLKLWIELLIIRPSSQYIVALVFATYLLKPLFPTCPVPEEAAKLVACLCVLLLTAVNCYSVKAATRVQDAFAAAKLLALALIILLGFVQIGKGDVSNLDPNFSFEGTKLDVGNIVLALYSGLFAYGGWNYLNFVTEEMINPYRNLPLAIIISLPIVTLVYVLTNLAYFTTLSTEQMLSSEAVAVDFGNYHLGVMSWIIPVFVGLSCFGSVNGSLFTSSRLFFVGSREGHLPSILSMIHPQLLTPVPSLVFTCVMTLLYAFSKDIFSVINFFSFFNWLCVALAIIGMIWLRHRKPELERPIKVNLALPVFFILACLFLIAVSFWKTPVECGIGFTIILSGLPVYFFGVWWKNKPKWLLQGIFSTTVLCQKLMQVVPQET
Sequence of human LAT1/4F2hc (P08195 102-630 partner): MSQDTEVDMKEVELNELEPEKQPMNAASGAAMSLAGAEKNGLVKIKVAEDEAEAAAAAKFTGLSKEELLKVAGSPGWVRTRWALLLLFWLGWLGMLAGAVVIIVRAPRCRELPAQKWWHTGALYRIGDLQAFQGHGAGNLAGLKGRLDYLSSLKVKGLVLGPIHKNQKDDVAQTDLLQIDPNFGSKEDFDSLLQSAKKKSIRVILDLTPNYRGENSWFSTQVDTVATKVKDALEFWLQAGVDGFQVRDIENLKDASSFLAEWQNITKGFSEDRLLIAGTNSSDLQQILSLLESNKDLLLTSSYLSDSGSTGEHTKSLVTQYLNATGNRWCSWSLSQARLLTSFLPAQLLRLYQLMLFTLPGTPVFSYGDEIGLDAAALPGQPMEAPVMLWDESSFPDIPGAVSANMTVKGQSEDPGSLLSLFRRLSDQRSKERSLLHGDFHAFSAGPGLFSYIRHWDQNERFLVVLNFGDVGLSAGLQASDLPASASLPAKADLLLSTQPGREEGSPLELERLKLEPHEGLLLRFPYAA

SMILES	effect on cDNA-induced valine uptake (human LAT1/4F2hc)	IC50 (ATB^0,+ in MCF7 cells; MCF7 cells)	type of inhibition of LAT1 (human LAT1/4F2hc)	kinetic nature of inhibition of D-serine uptake (ATB^0,+ in MCF7 cells; 100 μM blocker, D-serine 50-2000 μM, Eadie-Hofstee)	Kt for D-serine uptake in the presence of blocker (ATB^0,+ in MCF7 cells; [1])	Vmax for D-serine uptake in the presence of blocker (ATB^0,+ in MCF7 cells; [1])	IC50 of L-isomer lower compared with D-isomer (ATB^0,+ in MCF7 cells; D-serine uptake, MCF7 cells)
Cn1cc(CC(N)C(=O)O)c2ccccc21 (racemic) [1-methyl-DL-tryptophan]	abolished completely	221 ± 40 µM	–	–	–	–	–
CC(N)(Cc1c[nH]c2ccccc12)C(=O)O (racemic) [α-methyl-DL-tryptophan]	abolished completely	–	competitive inhibitor	competitive	869 ± 52 µM	33.3±1.4 nmol/mg of protein per 15 min	–
Cn1cc(C[C@@H](N)C(=O)O)c2ccccc21 [1-methyl-D-tryptophan]	–	1580 ± 180 µM	–	–	–	–	–
Cn1cc(C[C@H](N)C(=O)O)c2ccccc21 [1-methyl-L-tryptophan]	abolished completely	86 ± 11 µM	–	–	–	–	at least 15 fold

Source: patent US8436039B2, “Inhibitors of the ATB(0,+) transporter and uses thereof” (Georgia Health Sciences University Research Institute, Inc., priority 2008, dated 2013)
